Results taken from patent US20250092395A1, “A GLUN2D INHIBITOR FOR USE IN THE TREATMENT OR RELAPSE PREVENTION OF A DEPRESSIVE EPISODE” (priority 2022, published 2025).
Entries after “also recorded” stand apart in the source; their conditions may differ. Where a name gives a salt, the structure may show the parent alone.

Experiments:
[1] = system: mice subjected to the chronic despair model (CDM); assay: Chronic despair model (CDM) swim test, immobility time; type: in vivo; settings: CDM mice, test day
Experimental: Induction phase: Mice were forced to swim in a glass cylinder (0 26 cm, 60 cm high) filled to 25 cm with 25° C. warm water for 10 min on 5 consecutive days. After the swimming, the animals were kept in their cages for two days before treatment and experiment readout was performed. The immobility time was measured in each session.
Behavioral Readout: After the treatment intervention, animals were either tested in an additional swim session (test day) to measure immobility time or tested in the InteliCage using the Nose-pokes sucrose preference test. For the assessment of the immobility time, mice were videotaped and two independent raters who were blinded to the experimental group analyzed the videos. Immobility time was defined as the cumulative time that the animals spend stationary with only enough movements of the tails or the forepaws to keep the head above the water surface. No distance is actively travelled except for passive floating, no directed movement of the front paws observed and the body of the animal mostly oriented parallel to the walls of the cylinder.

[2] = system: NMDAR currents in CA1 pyramidal cells; assay: NMDAR currents in voltage-clamp recordings, CA1 pyramidal cells; type: cell-based, mice; settings: +40 mV, CNQX, bath application 10 μM
Experimental: After 20 min resting time at 35° C., slices were kept at room temperature in aCSF and transferred into the recording chamber (volume approx. 2-3 ml) and continuously superfused with aCSF (rate approx. 5-10 ml/min-). Differential interference contrast video microscopy was used to identify location of CA1 pyramidal neurons (Zeiss Axioskop 2 FS plus, Zeiss Microscopy, Germany). Beside optical identification neurons were classified according to their characteristic firing frequency adaptation to long depolarising current pulses. Borosilicate glass tubes (2.0 mm outer diameter, 0.5 mm wall thickness; Hilgenberg, Germany) were used to pull patch pipettes. Pipettes with a resistance of 5-10 MΩ were used and series resistance of 10-50 MΩ was compensated by bridge balance. Patch pipettes were filled with an internal solution containing (in mM) for EPSP-measurements: 132K-gluconate, 20KCL, 2MgCl2, 10Hepes, 0.1EGTA, 4 Na2ATP, 0.3NaGTP. PH was adjusted to 7.2 with KOH. For current measurements: 135Csgluconate, 2CsCl, 5 QX314, 10 Hepes, 10EGTA, 2MgCl2, 2Na2ATP, 2TEACI, pH was adjusted to 7.2 with HCl. Osmolarity (280-300 mosmol/1) was controlled at the beginning of each experimental day with Osmomat (Gonotec GmbH, Germany).

[3] = system: SOM-dependent feedback loop, CA1 PCs; assay: Feedback loop-activating protocol (FLAP) in CA1 PCs; type: cell-based, mice; settings: for synaptic AP probability (conversion of EPSPs to APs) in FLAP: 10 μM washed in, 10-30 min vs baseline; for EPSP amplitude in the FLAP: wash-in of 10 μM after 10 min baseline
Experimental: A 300 ms depolarizing current between +100 and +[…] was injected via the patch pipette into a PC to elicit a train of 5-10 APs. After an interval of 600 ms, one EPSP (5-10 mV amplitude) was elicited by Schaffer collateral stimulation. This pattern was continuously repeated at a frequency of 0.2 Hz. Substances were added by bath application after a stable 10 min baseline recording for an additional 20 min. For data analysis the maximum EPSP amplitudes from minutes 0-10 were averaged and compared to averaged maximum EPSP amplitudes from minutes 20-30.
The slope of the EPSP rise at 20% to 40% of its maximal amplitude, at which point an approximately linear increase in its voltage could be assumed, was fitted with Fitmaster software (HEKA, Germany). We analyzed 20 EPSPs before and 20 EPSPs 25-30 minutes after NAB-14 wash-in in the FLAP protocol for each experiment. The coefficient of variation (CV) is the standard deviation of the EPSP slopes divided by the mean. The inverse square of the CV of the postwash-in slopes was divided by the inverse square of the prewash-in slopes and plotted against the corresponding normalized slopes. Pre- and postwash-in measurements from a single experiment are connected by a line. In a standard quantal model for synaptic transmission, synaptic responses are affected either by presynaptic changes in the number of release sites and/or the probability of release or by modifications of the postsynaptic response to a single […]. A change in the ratio of CV-2 reflects a presynaptic action, whereas horizontal lines in the CV-2 plot indicate a change in postsynaptic responsiveness.

[4] = Side effects in in vivo experiments; design: species or system mice
[5] = system: SOM-dependent feedback loop, CA1 PCs; assay: Feedback loop-activating protocol (FLAP) in CA1 PCs; type: cell-based, mice
[6] = target: recombinant GluN2D-containing receptors (Rattus norvegicus, UniProt Q62645); settings: recombinant GluN2D-containing receptors expressed in mammalian cells; cited from earlier work
recombinant GluN2D-containing receptors, sequence (Q62645 28-1323, other chains not shown): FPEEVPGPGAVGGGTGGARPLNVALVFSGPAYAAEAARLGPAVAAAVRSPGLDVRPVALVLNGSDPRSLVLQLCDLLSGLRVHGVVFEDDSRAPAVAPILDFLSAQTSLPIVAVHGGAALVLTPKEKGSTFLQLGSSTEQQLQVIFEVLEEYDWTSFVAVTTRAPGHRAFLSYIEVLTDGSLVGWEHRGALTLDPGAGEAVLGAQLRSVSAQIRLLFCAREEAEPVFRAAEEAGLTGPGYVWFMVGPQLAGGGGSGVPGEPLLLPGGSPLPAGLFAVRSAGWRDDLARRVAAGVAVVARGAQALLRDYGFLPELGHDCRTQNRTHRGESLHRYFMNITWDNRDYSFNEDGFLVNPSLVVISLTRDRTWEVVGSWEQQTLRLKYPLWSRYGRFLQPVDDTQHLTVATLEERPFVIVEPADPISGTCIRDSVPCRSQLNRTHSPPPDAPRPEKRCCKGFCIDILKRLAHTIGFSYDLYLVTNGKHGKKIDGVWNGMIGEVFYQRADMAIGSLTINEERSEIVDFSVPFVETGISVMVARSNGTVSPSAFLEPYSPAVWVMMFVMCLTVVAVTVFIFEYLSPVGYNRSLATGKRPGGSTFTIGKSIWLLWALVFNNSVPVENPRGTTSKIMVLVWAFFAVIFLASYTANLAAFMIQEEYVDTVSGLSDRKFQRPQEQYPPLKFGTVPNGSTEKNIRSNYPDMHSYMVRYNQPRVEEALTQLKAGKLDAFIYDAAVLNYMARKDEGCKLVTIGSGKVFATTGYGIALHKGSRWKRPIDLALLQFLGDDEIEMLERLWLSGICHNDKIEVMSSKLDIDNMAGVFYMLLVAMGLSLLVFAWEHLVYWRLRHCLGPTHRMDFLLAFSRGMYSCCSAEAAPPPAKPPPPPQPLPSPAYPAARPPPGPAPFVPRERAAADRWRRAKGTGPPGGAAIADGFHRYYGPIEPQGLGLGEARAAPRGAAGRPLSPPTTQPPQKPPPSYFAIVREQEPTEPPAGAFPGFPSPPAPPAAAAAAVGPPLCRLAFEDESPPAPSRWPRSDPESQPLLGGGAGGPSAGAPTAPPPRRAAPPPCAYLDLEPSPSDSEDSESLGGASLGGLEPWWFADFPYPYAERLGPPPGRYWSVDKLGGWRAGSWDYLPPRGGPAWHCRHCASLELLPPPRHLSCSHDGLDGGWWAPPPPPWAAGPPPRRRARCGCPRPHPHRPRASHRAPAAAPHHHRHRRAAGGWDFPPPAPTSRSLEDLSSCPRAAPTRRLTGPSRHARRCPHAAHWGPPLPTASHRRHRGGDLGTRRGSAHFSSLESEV

Row | Compound | immobility time ([1]; injection of NAB-14 (5/10 μM as printed)) | amplitude of NMDAR currents in CA1 pyramidal cells [2] | synaptic AP probability (conversion of EPSPs to APs) in FLAP [3] | PC excitability: number of APs during the burst and input resistance (Rm) ([3]; NAB-14 10 μM in FLAP) | coefficient of variation (CV) analysis of EPSP slopes before and after wash-in ([3]; NAB-14 wash-in in FLAP) | EPSP amplitude in the FLAP [3] | side effects [4] | EPSP amplitude in the absence of AP bursts [5] | IC50 [6] | immobility time ([1]; 10 mg/kg R,S-ketamine intraperitoneal, vs control) | amplitude of NMDAR currents in CA1 pyramidal cells ([2]; hydrochloride) | amplitude of NMDAR currents in CA1 pyramidal cells ([2]; listed as R,S-Ketamine, hydrochloride) | synaptic AP probability (conversion of EPSPs to APs) in FLAP ([3]; hydrochloride) | EPSP amplitude in the FLAP ([3]; hydrochloride) | EPSP amplitude in the FLAP ([3]; listed as ketamine, hydrochloride)
1 | CCN(CC)C(=O)Oc1ccc(C(=O)Nc2cccc3cc[nH]c23)cc1 [NAB-14] | significantly reduced | no relevant NMDAR reduction | significant increase in synaptic AP probability | did not significantly change; also recorded: no significant alteration in AP number; also recorded: no significant change in postsynaptic input resistance | consistent with a postsynaptic mechanism | significantly increased; also recorded: increased significantly | did not show side effects | neither NAB14 nor diazepam wash-in significantly altered the EPSP amplitude; also recorded: no significant pre/post changes | 0.58 µM |  |  |  |  |  | 
2 | CNC1(c2ccccc2Cl)CCCCC1=O (stereo not drawn) [R,S-ketamine, R,S-Ketamine hydrochloride] |  |  |  |  |  |  |  |  |  | significantly reduced | reduced the amplitude | significantly blocking NMDAR currents in CA1 cells | higher percentage of APs; also recorded: significant increase in synaptic AP probability | dramatically increased | increased significantly
